In BindingDB's records for doi:10.1016/j.bmcl.2009.04.116 (Banyu Pharmaceutical, 2009):

Each compound was assayed against Nociceptin receptor (Homo sapiens, UniProt P41146) (assay: In Vitro Binding Assay (IC50) and In Vitro Agonism/Antagonism Measurements (EC50/IC50)). Conditions: not given.
Experimental: IC50 values are calculated using GraphPad Prism. Agonist/antagonist activities were measured by the [35S]GTPgamma-S binding to proteins using membrane fractions of CHO cells expressing ORL1. Nonspecific binding is determined in the presence of 10 uM unlabeled GTPgammaS. Membrane-bound radioactivity is measured using a TopCount-HTS (PerkinElmer). Specific binding of [35S]GTPgammaS is determined as a difference between the control (in the presence of appropriate concentration of nociceptin), and the baseline (in the presence of DMSO instead of compound). EC50/IC50 values are calculated from % of specific binding in the presence of various concentration of the compound using GraphPad Prism 3.03.

Sequence of Nociceptin receptor (P41146 whole entry): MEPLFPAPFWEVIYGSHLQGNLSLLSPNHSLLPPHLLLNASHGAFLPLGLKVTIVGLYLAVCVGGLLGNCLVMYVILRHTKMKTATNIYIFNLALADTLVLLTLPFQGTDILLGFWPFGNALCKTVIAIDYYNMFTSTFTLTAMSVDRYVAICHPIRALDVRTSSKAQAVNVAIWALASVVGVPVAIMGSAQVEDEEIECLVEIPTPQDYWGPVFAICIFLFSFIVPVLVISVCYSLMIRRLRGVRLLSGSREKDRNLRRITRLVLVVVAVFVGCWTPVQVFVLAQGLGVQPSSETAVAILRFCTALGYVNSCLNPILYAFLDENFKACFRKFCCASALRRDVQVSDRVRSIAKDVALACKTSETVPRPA

Row | Compound | EC50 [nM]
1 | Cc1ccc(-c2c(C)c(CNC3CCC(F)(F)C3)nn2-c2ncccc2Cl)cn1 (stereo not drawn) [arylpyrazole, 29] | 4.5
2 | Cc1ccc(-c2c(C)c(CNC3CCCC3F)nn2-c2ncccc2Cl)cn1 (stereo not drawn) [arylpyrazole, 27] | 7.1
3 | Cc1ncc(-c2c(C)c(CNC3CCCC3)nn2-c2ncccc2Cl)cc1F [arylpyrazole, 30] | 1.2
4 | Cc1ncc(-c2c(C)c(CN[C@H]3CC[C@@H](F)C3)nn2-c2ncccc2Cl)cc1F [arylpyrazole, 31] | 0.31
5 | Cc1ccc(-c2c(C)c(CN[C@H]3CC[C@@H](F)C3)nn2-c2ncccc2Cl)cn1 [arylpyrazole, 28] | 1

Same assay, conditions: pH 7.4; 37 °C

Row | Compound | EC50 [nM]
6 | Cc1c(CNC(C)C)nn(-c2ccc(Cl)cc2Cl)c1-c1ccc(Cl)cc1 [arylpyrazole, 1] | 480
7 | Cc1ccc(-c2c(C)c(CNC3CCCC3)nn2-c2ncccc2Cl)cn1 [arylpyrazole, 19] | 4.7
8 | Cc1c(CNC2CCCC2)nn(-c2ncccc2Cl)c1-c1ccc(Cl)nc1 [arylpyrazole, 18] | 12
